What was measured:
Homo sapiens [1] = species on record: Homo sapiens; test: Liver toxicity in human assessed as induction of drug-induced liver injury by measuring verified drug-induced liver injury concern status
Homo sapiens [2] = species on record: Homo sapiens; test: Liver toxicity in human assessed as induction of drug-induced liver injury by measuring severity class index
Wherever DILI severity class is given: key of the grades not given here.

## CCCCCCCCCC(=O)OC1(c2ccc(Cl)cc2)CCN(CCCC(=O)c2ccc(F)cc2)CC1 [HALOPERIDOL DECANOATE]
Homo sapiens [1]
  DILI_Concern: Ambiguous-Dili-Concern
Homo sapiens [2]
  DILI_severity_class: 3

## CO[C@H]1/C=C/O[C@@]2(C)Oc3c(C)c(O)c4c(O)c(c5c(nc6cc(C)ccn65)c4c3C2=O)NC(=O)/C(C)=C\C=C\[C@H](C)[C@H](O)[C@@H](C)[C@@H](O)[C@@H](C)[C@H](OC(C)=O)[C@@H]1C [RIFAXIMIN]
Homo sapiens [1]
  DILI_Concern: Ambiguous-Dili-Concern
Homo sapiens [2]
  DILI_severity_class: 7

## CC#C[C@]1(O)CC[C@H]2[C@@H]3CCC4=CC(=O)CCC4=C3[C@@H](c3ccc(N(C)C)cc3)C[C@@]21C [MIFEPRISTONE]
Homo sapiens [1]
  DILI_Concern: No-Dili-Concern
Homo sapiens [2]
  DILI_severity_class: 0

## O=C(O)COC(=O)Cc1ccccc1Nc1c(Cl)cccc1Cl [ACECLOFENAC]
Homo sapiens [1]
  DILI_Concern: Less-Dili-Concern
Homo sapiens [2]
  DILI_severity_class: 0

## CC(NC(C)(C)C)C(=O)c1cccc(Cl)c1 (configuration not stated) [BUPROPION]
Homo sapiens [1]
  DILI_Concern: Less-Dili-Concern
Homo sapiens [2]
  DILI_severity_class: 5

## C[C@@H]1[C@H](O)[C@@H](C)/C=C/C=C/C=C/C=C/C=C/C=C/C=C/[C@H](O[C@@H]2O[C@H](C)[C@@H](O)[C@H](N)[C@@H]2O)C[C@@H]2O[C@](O)(C[C@@H](O)C[C@@H](O)[C@H](O)CC[C@@H](O)C[C@@H](O)CC(=O)O[C@H]1C)C[C@H](O)[C@H]2C(=O)O [AMPHOTERICIN B]
Homo sapiens [1]
  DILI_Concern: Less-Dili-Concern
Homo sapiens [2]
  DILI_severity_class: 3

## CC(COc1ccccc1)NN (configuration not stated) [PHENOXYPROPAZINE]
Homo sapiens [1]
  DILI_Concern: Most-Dili-Concern
Homo sapiens [2]
  DILI_severity_class: 8

## COc1ccc2c(c1)[C@]13CCCC[C@@H]1[C@H](C2)N(C)CC3 [DEXTROMETHORPHAN]
Homo sapiens [1]
  DILI_Concern: No-Dili-Concern
Homo sapiens [2]
  DILI_severity_class: 0

## CC(=O)O[C@@]12CO[C@@H]1C[C@H](O)[C@@]1(C)C(=O)[C@H](O)C3=C(C)[C@@H](OC(=O)[C@H](O)[C@@H](NC(=O)OC(C)(C)C)c4ccccc4)C[C@@](O)([C@@H](OC(=O)c4ccccc4)[C@H]21)C3(C)C [DOCETAXEL ANHYDROUS]
Homo sapiens [1]
  DILI_Concern: Less-Dili-Concern
Homo sapiens [2]
  DILI_severity_class: 3

## CC(C)C[C@H](NC(=O)[C@H](CCCCN)NC(=O)CNC(=O)[C@H](CC(C)C)NC(=O)[C@@H](NC(=O)[C@@H]1CSSC[C@H](N)C(=O)N[C@@H](CO)C(=O)N[C@@H](CC(N)=O)C(=O)N[C@@H](CC(C)C)C(=O)N[C@@H](CO)C(=O)N[C@@H]([C@@H](C)O)C(=O)N1)C(C)C)C(=O)N[C@@H](CO)C(=O)N[C@@H](CCC(N)=O)C(=O)N[C@@H](CCC(=O)O)C(=O)N[C@@H](CC(C)C)C(=O)N[C@@H](Cc1c[nH]cn1)C(=O)N[C@@H](CCCCN)C(=O)N[C@@H](CC(C)C)C(=O)N[C@@H](CCC(N)=O)C(=O)N[C@H](C(=O)N[C@@H](Cc1ccc(O)cc1)C(=O)N1CCC[C@H]1C(=O)N[C@@H](CCCNC(=N)N)C(=O)N[C@H](C(=O)N[C@@H](CC(N)=O)C(=O)N[C@H](C(=O)NCC(=O)N[C@@H](CO)C(=O)NCC(=O)N[C@H](C(=O)N1CCC[C@H]1C(N)=O)[C@@H](C)O)[C@@H](C)O)[C@@H](C)O)[C@@H](C)O [CALCITONIN SALMON]
Homo sapiens [1]
  DILI_Concern: No-Dili-Concern
Homo sapiens [2]
  DILI_severity_class: 0

## CN(C)/N=N/c1[nH]cnc1C(N)=O [DACARBAZINE]
Homo sapiens [1]
  DILI_Concern: Most-Dili-Concern
Homo sapiens [2]
  DILI_severity_class: 6

## NCC[C@H](O)C(=O)N[C@@H]1C[C@H](N)[C@@H](O[C@H]2O[C@H](CN)[C@@H](O)[C@H](O)[C@H]2O)[C@H](O)[C@H]1O[C@H]1O[C@H](CO)[C@@H](O)[C@H](N)[C@H]1O [AMIKACIN]
Homo sapiens [1]
  DILI_Concern: No-Dili-Concern
Homo sapiens [2]
  DILI_severity_class: 0

## C#C[C@]1(O)CC[C@H]2[C@@H]3CCC4=CC(=O)CC[C@@H]4[C@H]3C(=C)C[C@@]21CC [ETONOGESTREL]
Homo sapiens [1]
  DILI_Concern: Ambiguous-Dili-Concern
Homo sapiens [2]
  DILI_severity_class: 5

## CO/N=C(\C(=O)N[C@@H]1C(=O)N2C(C(=O)O)=C(COC(C)=O)CS[C@H]12)c1csc(N)n1 [CEFOTAXIME]
Homo sapiens [1]
  DILI_Concern: Less-Dili-Concern
Homo sapiens [2]
  DILI_severity_class: 5

## CC[C@H](C)C(=O)O[C@H]1C[C@H](O)C=C2C=C[C@H](C)[C@H](CC[C@@H](O)C[C@@H](O)CC(=O)O)[C@H]21 [PRAVASTATIN]
Homo sapiens [1]
  DILI_Concern: Less-Dili-Concern
Homo sapiens [2]
  DILI_severity_class: 3

## CC12CC3CC(C)(C1)CC(N)(C3)C2 [MEMANTINE]
Homo sapiens [1]
  DILI_Concern: Less-Dili-Concern
Homo sapiens [2]
  DILI_severity_class: 7

## CCCCc1nc(Cl)c(CO)n1Cc1ccc(-c2ccccc2-c2nn[nH]n2)cc1 [LOSARTAN]
Homo sapiens [1]
  DILI_Concern: Less-Dili-Concern
Homo sapiens [2]
  DILI_severity_class: 4

## Nc1ncn([C@H]2C[C@H](O)[C@@H](CO)O2)c(=O)n1 [DECITABINE]
Homo sapiens [1]
  DILI_Concern: Ambiguous-Dili-Concern
Homo sapiens [2]
  DILI_severity_class: 4

## CCOC(=O)C1=C(C)NC(C)=C(C(=O)OC)C1c1cccc(Cl)c1Cl (configuration not stated) [FELODIPINE]
Homo sapiens [1]
  DILI_Concern: Less-Dili-Concern
Homo sapiens [2]
  DILI_severity_class: 3

## NCCCC[C@H](N[C@@H](CCc1ccccc1)C(=O)O)C(=O)N1CCC[C@H]1C(=O)O [LISINOPRIL ANHYDROUS]
Homo sapiens [1]
  DILI_Concern: Less-Dili-Concern
Homo sapiens [2]
  DILI_severity_class: 3

## CNNCc1ccc(C(=O)NC(C)C)cc1 [PROCARBAZINE]
Homo sapiens [1]
  DILI_Concern: Less-Dili-Concern
Homo sapiens [2]
  DILI_severity_class: 3

## CCC(=O)O[C@](Cc1ccccc1)(c1ccccc1)[C@H](C)CN(C)C [PROPOXYPHENE]
Homo sapiens [1]
  DILI_Concern: Less-Dili-Concern
Homo sapiens [2]
  DILI_severity_class: 3

## N[C@@H](Cc1cc(I)c(Oc2cc(I)c(O)c(I)c2)c(I)c1)C(=O)O [LEVOTHYROXINE]
Homo sapiens [1]
  DILI_Concern: Less-Dili-Concern
Homo sapiens [2]
  DILI_severity_class: 3

## NC(=O)NS(=O)(=O)c1ccc(N)cc1 [SULFACARBAMIDE]
Homo sapiens [1]
  DILI_Concern: Most-Dili-Concern
Homo sapiens [2]
  DILI_severity_class: 8

## COc1cc2c(c(OC)c1OC)-c1ccc(OC)c(=O)cc1[C@@H](NC(C)=O)CC2 [COLCHICINE]
Homo sapiens [1]
  DILI_Concern: Ambiguous-Dili-Concern
Homo sapiens [2]
  DILI_severity_class: 6

## N=C(N)N [GUANIDINE]
Homo sapiens [1]
  DILI_Concern: Ambiguous-Dili-Concern
Homo sapiens [2]
  DILI_severity_class: 3

## CCCCCNC(=N)N/N=C/c1c[nH]c2ccc(OC)cc12 [TEGASEROD]
Homo sapiens [1]
  DILI_Concern: Ambiguous-Dili-Concern
Homo sapiens [2]
  DILI_severity_class: 3

## C=C[C@H]1C[N@@]2CC[C@H]1C[C@@H]2[C@@H](O)c1ccnc2ccc(OC)cc12 [QUINIDINE]
Homo sapiens [1]
  DILI_Concern: Less-Dili-Concern
Homo sapiens [2]
  DILI_severity_class: 3

## CC(C(=O)O)c1cccc(Oc2ccccc2)c1 (configuration not stated) [FENOPROFEN]
Homo sapiens [1]
  DILI_Concern: Most-Dili-Concern
Homo sapiens [2]
  DILI_severity_class: 8

## CC(C)c1c(C(=O)Nc2ccccc2)c(-c2ccccc2)c(-c2ccc(F)cc2)n1CC[C@@H](O)C[C@@H](O)CC(=O)O [ATORVASTATIN]
Homo sapiens [1]
  DILI_Concern: Most-Dili-Concern
Homo sapiens [2]
  DILI_severity_class: 5

## CS(=O)(=O)Nc1ccc([N+](=O)[O-])cc1Oc1ccccc1 [NIMESULIDE]
Homo sapiens [1]
  DILI_Concern: Most-Dili-Concern
Homo sapiens [2]
  DILI_severity_class: 8

## COC(=O)N[C@H](C(=O)N[C@@H](Cc1ccccc1)[C@@H](O)CN(Cc1ccc(-c2ccccn2)cc1)NC(=O)[C@@H](NC(=O)OC)C(C)(C)C)C(C)(C)C [ATAZANAVIR]
Homo sapiens [1]
  DILI_Concern: Less-Dili-Concern
Homo sapiens [2]
  DILI_severity_class: 3

## Cc1nc2c([nH]1)-c1ccccc1N(C(=O)c1ccc(NC(=O)c3ccccc3-c3ccccc3)cc1)CC2 [CONIVAPTAN]
Homo sapiens [1]
  DILI_Concern: No-Dili-Concern
Homo sapiens [2]
  DILI_severity_class: 0

## CC[C@@H](CO)NC(=O)[C@@H]1C=C2c3cccc4[nH]cc(c34)C[C@H]2N(C)C1 [METHYLERGONOVINE]
Homo sapiens [1]
  DILI_Concern: No-Dili-Concern
Homo sapiens [2]
  DILI_severity_class: 0

## C[C@]12CC[C@@H]3c4ccc(O)cc4C[C@@H](CCCCCCCCC[S+]([O-])CCCC(F)(F)C(F)(F)F)[C@H]3[C@@H]1CC[C@@H]2O (some centres not stated) [FULVESTRANT]
Homo sapiens [1]
  DILI_Concern: Ambiguous-Dili-Concern
Homo sapiens [2]
  DILI_severity_class: 7

## CC1=C(/C=C/C(C)=C/C=C/C(C)=C\C(=O)O)C(C)(C)CCC1 [ISOTRETINOIN]
Homo sapiens [1]
  DILI_Concern: Most-Dili-Concern
Homo sapiens [2]
  DILI_severity_class: 5

## CCCc1nc(C)c2c(=O)[nH]c(-c3cc(S(=O)(=O)N4CCN(CC)CC4)ccc3OCC)nn12
Homo sapiens [1]
  DILI_Concern: Ambiguous-Dili-Concern
Homo sapiens [2]
  DILI_severity_class: 3

## CO/N=C(\C(=O)N[C@@H]1C(=O)N2C(C(=O)O)=CCS[C@H]12)c1csc(N)n1 [CEFTIZOXIME]
Homo sapiens [1]
  DILI_Concern: Ambiguous-Dili-Concern
Homo sapiens [2]
  DILI_severity_class: 4

## CC1(C)NC(=O)N(c2ccc([N+](=O)[O-])c(C(F)(F)F)c2)C1=O [NILUTAMIDE]
Homo sapiens [1]
  DILI_Concern: Most-Dili-Concern
Homo sapiens [2]
  DILI_severity_class: 8

## CN(C)CCC=C1c2ccccc2C=Cc2ccccc21 [CYCLOBENZAPRINE]
Homo sapiens [1]
  DILI_Concern: Less-Dili-Concern
Homo sapiens [2]
  DILI_severity_class: 5

## CN(C)[C@@H]1C(O)=C(C(N)=O)C(=O)[C@@]2(O)C(O)=C3C(=O)c4c(O)ccc(Cl)c4[C@@H](O)[C@H]3C[C@@H]12 [DEMECLOCYCLINE]
Homo sapiens [1]
  DILI_Concern: Ambiguous-Dili-Concern
Homo sapiens [2]
  DILI_severity_class: 3

## CC(=O)N[C@@H](CS)C(=O)O [ACETYLCYSTEINE]
Homo sapiens [1]
  DILI_Concern: No-Dili-Concern
Homo sapiens [2]
  DILI_severity_class: 0

## N=C(N)c1ccc(OCCCCCOc2ccc(C(=N)N)cc2)cc1 [PENTAMIDINE]
Homo sapiens [1]
  DILI_Concern: Less-Dili-Concern
Homo sapiens [2]
  DILI_severity_class: 3

## CCC(=O)C(CC(C)N(C)C)(c1ccccc1)c1ccccc1 (configuration not stated) [METHADONE]
Homo sapiens [1]
  DILI_Concern: Ambiguous-Dili-Concern
Homo sapiens [2]
  DILI_severity_class: 3

## Oc1ncnc2[nH]ncc12 [ALLOPURINOL]
Homo sapiens [1]
  DILI_Concern: Most-Dili-Concern
Homo sapiens [2]
  DILI_severity_class: 8

## CC(O)(CS(=O)(=O)c1ccc(F)cc1)C(=O)Nc1ccc(C#N)c(C(F)(F)F)c1 (configuration not stated) [BICALUTAMIDE]
Homo sapiens [1]
  DILI_Concern: Most-Dili-Concern
Homo sapiens [2]
  DILI_severity_class: 8

## O=S(=O)([O-])CCS.[Na+] [MESNA]
Homo sapiens [1]
  DILI_Concern: Ambiguous-Dili-Concern
Homo sapiens [2]
  DILI_severity_class: 3

## C[C@@H](O)[C@H]1C(=O)N2C(C(=O)O)=C(S[C@@H]3CN[C@H](C(=O)N(C)C)C3)[C@H](C)[C@H]12 [MEROPENEM]
Homo sapiens [1]
  DILI_Concern: Less-Dili-Concern
Homo sapiens [2]
  DILI_severity_class: 3

## CC(C)(C)NC[C@H](O)COc1ccccc1C1CCCC1 [PENBUTOLOL]
Homo sapiens [1]
  DILI_Concern: No-Dili-Concern
Homo sapiens [2]
  DILI_severity_class: 0

## CCOC(Nc1ccc(C(=O)O)cc1)C(=O)c1ccc(-c2ccccc2)cc1 (configuration not stated) [XENAZOIC ACID]
Homo sapiens [1]
  DILI_Concern: Most-Dili-Concern
Homo sapiens [2]
  DILI_severity_class: 8

## CN1C(CSCC(F)(F)F)Nc2cc(Cl)c(S(N)(=O)=O)cc2S1(=O)=O (configuration not stated) [POLYTHIAZIDE]
Homo sapiens [1]
  DILI_Concern: Ambiguous-Dili-Concern
Homo sapiens [2]
  DILI_severity_class: 2
